As usually defined, the IC50 is the point on the concentration scale where inhibition reaches its midpoint.

Sequence of full-length human PIKFYVE (N-terminal GST-fusion) (Q9Y2I7 whole entry S696N/L932S/Q995L/T998S/S1033A/Q1183K, the tested form may be a part): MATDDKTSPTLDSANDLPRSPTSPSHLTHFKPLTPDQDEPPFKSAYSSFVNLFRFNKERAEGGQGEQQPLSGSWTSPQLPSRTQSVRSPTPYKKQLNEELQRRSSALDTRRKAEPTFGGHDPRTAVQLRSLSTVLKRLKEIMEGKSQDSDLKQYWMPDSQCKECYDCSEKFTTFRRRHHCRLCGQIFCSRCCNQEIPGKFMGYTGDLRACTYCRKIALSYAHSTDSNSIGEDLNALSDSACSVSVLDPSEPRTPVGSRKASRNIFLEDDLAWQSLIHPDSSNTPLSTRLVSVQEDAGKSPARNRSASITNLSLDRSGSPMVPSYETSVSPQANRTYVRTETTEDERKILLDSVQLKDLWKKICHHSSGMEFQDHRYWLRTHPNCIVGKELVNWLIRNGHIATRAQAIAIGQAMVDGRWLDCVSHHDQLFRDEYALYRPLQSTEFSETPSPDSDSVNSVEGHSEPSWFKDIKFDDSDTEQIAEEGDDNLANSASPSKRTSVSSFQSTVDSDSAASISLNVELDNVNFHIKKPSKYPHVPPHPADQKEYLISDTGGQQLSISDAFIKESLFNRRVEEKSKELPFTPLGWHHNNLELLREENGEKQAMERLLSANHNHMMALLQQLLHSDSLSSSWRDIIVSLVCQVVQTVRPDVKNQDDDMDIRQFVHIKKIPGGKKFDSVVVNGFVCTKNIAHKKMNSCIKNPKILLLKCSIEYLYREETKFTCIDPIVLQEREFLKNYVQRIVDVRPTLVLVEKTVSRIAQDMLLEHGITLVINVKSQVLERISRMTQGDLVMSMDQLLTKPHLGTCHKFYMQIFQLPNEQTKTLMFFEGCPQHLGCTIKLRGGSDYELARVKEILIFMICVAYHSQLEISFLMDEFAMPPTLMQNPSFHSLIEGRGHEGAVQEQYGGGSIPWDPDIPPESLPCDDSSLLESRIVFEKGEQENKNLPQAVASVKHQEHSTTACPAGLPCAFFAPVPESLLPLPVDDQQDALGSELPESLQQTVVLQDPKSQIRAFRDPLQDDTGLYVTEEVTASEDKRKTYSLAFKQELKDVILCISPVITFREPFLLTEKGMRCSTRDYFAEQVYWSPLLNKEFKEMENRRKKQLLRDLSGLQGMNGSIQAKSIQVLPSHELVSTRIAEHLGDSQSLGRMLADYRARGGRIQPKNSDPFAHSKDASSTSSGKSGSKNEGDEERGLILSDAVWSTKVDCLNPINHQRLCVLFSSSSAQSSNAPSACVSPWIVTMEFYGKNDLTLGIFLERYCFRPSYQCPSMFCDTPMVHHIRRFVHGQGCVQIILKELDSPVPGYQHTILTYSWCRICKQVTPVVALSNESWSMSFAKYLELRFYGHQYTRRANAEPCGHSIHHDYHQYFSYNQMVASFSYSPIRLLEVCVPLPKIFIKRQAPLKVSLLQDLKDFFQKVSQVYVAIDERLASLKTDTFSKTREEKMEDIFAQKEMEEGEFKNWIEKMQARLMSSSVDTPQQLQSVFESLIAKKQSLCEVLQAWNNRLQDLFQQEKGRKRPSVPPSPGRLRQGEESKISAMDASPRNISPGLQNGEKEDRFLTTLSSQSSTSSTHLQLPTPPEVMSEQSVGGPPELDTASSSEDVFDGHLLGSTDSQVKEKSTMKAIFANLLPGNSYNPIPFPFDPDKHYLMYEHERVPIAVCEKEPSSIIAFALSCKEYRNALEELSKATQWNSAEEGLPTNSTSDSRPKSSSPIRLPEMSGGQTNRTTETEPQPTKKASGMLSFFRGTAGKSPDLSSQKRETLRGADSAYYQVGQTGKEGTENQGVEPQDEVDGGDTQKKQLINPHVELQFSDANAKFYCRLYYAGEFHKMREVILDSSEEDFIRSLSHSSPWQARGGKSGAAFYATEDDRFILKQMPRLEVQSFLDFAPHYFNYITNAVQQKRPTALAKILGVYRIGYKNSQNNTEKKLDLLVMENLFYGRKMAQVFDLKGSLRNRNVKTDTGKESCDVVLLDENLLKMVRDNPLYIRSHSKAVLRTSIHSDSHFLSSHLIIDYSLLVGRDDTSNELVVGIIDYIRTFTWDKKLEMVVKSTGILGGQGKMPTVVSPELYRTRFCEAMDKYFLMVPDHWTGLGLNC

The first experiment concerns the target full-length human PIKFYVE (N-terminal GST-fusion) (Homo sapiens (Human), UniProt Q9Y2I7, L932S/Q1183K/Q995L/S1033A/S696N/T998S). As to the kind of experiment: PIKfyve biochemical assay (ADP-Glo Kinase assay, Carna Biosciences). The settings on record: ADP-Glo, full-length human GST-PIKFYVE, 10 μM to 3 nM; read-out: hPIKfyve IC50.
Description: (§1) PIKfyve Biochemical Assay. The biochemical PIKfyve inhibition assays were run by Carna Biosciences according to proprietary methodology based on the Promega ADP-Glo™ Kinase assay. A full-length human PIKFYVE [1-2098(end) amino acids and S696N, L932S, Q995L, T998S, S1033A and Q1183K of the protein having the sequence set forth in NCBI Reference Sequence No. NP_055855.2] was expressed as N-terminal GST-fusion protein (265 kDa) using baculovirus expression system. GST-PIKFYVE was purified by using glutathione sepharose chromatography and used in an ADP-Glo™ Kinase assay (Promega). Reactions were set up by adding the test compound solution, substrate solution, ATP solution and kinase solution, each at 4× final concentrations. Reactions were prepared with assay buffer (50 mM MOPS, 1 mM DTT, pH7.2), mixed, and incubated in black 384 well polystyrene plates for 1 hour at room temperature. ADP-Glo™ reagent was then added for 40 minutes, followed by kinase detection reagent for an additional 40 minutes. The kinase activity was evaluated by detecting relative light units on a luminescence plate reader. Samples were run in duplicate from 10 μM to 3 nM. […] IC50 values were calculated from concentration vs % inhibition curves by fitting to a four-parameter logistic curve.
as §1, with “The” for “PIKfyve Biochemical Assay. The”, “accession number” for “the protein having the sequence set forth in NCBI Reference Sequence No.”, “curve. […]” for “curve.”
As for “4-(4-((oxetan-3-yloxy)methyl)-7-(pyridin-3-yl)-6,7-dihydro-5H-pyrrolo[2,3-d]pyrimidin-2-yl)morpholine [Compound 65]”, the IC50 was in the range of 1000 to 10000 nM.

Regarding “4-(6-methyl-7-(pyridin-4-yl)-4-(tetrahydrofuran-3-yl)-6,7-dihydro-5H-pyrrolo[2,3-d]pyrimidin-2-yl)morpholine [Compound 98]”, the IC50 fell in the range of 10 to 100 nM.

For the molecule “4-(7-(3-fluorophenyl)-4-(pyridin-3-ylmethoxy)-6,7-dihydro-5H-pyrrolo[2,3-d]pyrimidin-2-yl)morpholine [Compound 3]”, the IC50 was 100 to 1000 nM.

For the molecule `c1ccc(N2CCc3cnc(N4CCOCC4)nc32)cc1` [Compound 2, 4-(7-phenyl-6,7-dihydro-5H-pyrrolo[2,3-d]pyrimidin-2-yl)morpholine], the IC50 is 100 to 1000 nM.

`N#Cc1cccc(N2CCc3c(OCc4cccnc4)nc(N4CCOCC4)nc32)c1` [Compound 4, 3-(2-morpholino-4-(pyridin-3-ylmethoxy)-5H-pyrrolo[2,3-d]pyrimidin-7(6H)-yl)benzonitrile]: the IC50 is 100 to 1000 nM.

Regarding `CC(C)(C)OC(=O)N1CCC(N2CCc3c(OCc4cccnc4)nc(N4CCOCC4)nc32)CC1` [Compound 5, tert-butyl 4-(2-morpholino-4-(pyridin-3-ylmethoxy)-5H-pyrrolo[2,3-d]pyrimidin-7(6H)-yl)piperidine-1-carboxylate], the half-inhibitory concentration (IC50) was greater than 10000 nM.

For `c1cncc(COc2nc(N3CCOCC3)nc3c2CCN3C2CCNCC2)c1` [Compound 6, 4-(7-(piperidin-4-yl)-4-(pyridin-3-ylmethoxy)-6,7-dihydro-5H-pyrrolo[2,3-d]pyrimidin-2-yl)morpholine], the IC50 was greater than 10000 nM.

As to `N#Cc1ccc(N2CCc3c(OCc4cccnc4)nc(N4CCOCC4)nc32)cc1` [Compound 7, 4-(2-morpholino-4-(pyridin-3-ylmethoxy)-5H-pyrrolo[2,3-d]pyrimidin-7(6H)-yl)benzonitrile], the IC50 was in the range of 10 to 100 nM.

For `Fc1cccc(N2CCc3c(OCc4cccnn4)nc(N4CCOCC4)nc32)c1` [Compound 8, 4-(7-(3-fluorophenyl)-4-(pyridazin-3-ylmethoxy)-6,7-dihydro-5H-pyrrolo[2,3-d]pyrimidin-2-yl)morpholine], the IC50 lay in the range of 100 to 1000 nM.

Regarding `c1ncc(N2CCc3c(OCC4CCOCC4)nc(N4CCOCC4)nc32)cn1` [Compound 9, 4-(7-(pyrimidin-5-yl)-4-((tetrahydro-2H-pyran-4-yl)methoxy)-6,7-dihydro-5H-pyrrolo[2,3-d]pyrimidin-2-yl)morpholine], the half-maximal inhibitory concentration (IC50) was 100 to 1000 nM.

For `CCN1CCCC(COc2nc(N3CCOCC3)nc3c2CCN3c2cccnc2)C1` (stereo not drawn) [Compound 10, 4-(4-((1-ethylpiperidin-3-yl)methoxy)-7-(pyridin-3-yl)-6,7-dihydro-5H-pyrrolo[2,3-d]pyrimidin-2-yl)morpholine], the IC50 is 100 to 1000 nM.

With `CN1CCCC(CCOc2nc(N3CCOCC3)nc3c2CCN3c2cccnc2)C1` (stereo not drawn) [Compound 11, 4-(4-(2-(1-methylpiperidin-3-yl)ethoxy)-7-(pyridin-3-yl)-6,7-dihydro-5H-pyrrolo[2,3-d]pyrimidin-2-yl)morpholine], the IC50 is 10 to 100 nM.

Regarding `CN1CCOC(COc2nc(N3CCOCC3)nc3c2CCN3c2cccnc2)C1` (stereo not drawn) [Compound 12, 4-methyl-2-((2-morpholino-7-(pyridin-3-yl)-6,7-dihydro-5H-pyrrolo[2,3-d]pyrimidin-4-yloxy)methyl)morpholine], the IC50 was in the range of 100 to 1000 nM.

Consider `COc1cccc(N2CCc3c(OCC4CCCN(C)C4)nc(N4CCOCC4)nc32)c1` (stereo not drawn) [Compound 13, 4-(7-(3-methoxyphenyl)-4-((1-methylpiperidin-3-yl)methoxy)-6,7-dihydro-5H-pyrrolo[2,3-d]pyrimidin-2-yl)morpholine], for which the IC50 lay in the range of 10 to 100 nM.

As for `c1ccc(N2CCc3c(OCc4cncnc4)nc(N4CCOCC4)nc32)cc1` [Compound 14, 4-(7-phenyl-4-(pyrimidin-5-ylmethoxy)-6,7-dihydro-5H-pyrrolo[2,3-d]pyrimidin-2-yl)morpholine], the IC50 is 10 to 100 nM.

`c1ccc(N2CCc3c(OCc4cnccn4)nc(N4CCOCC4)nc32)cc1` [Compound 15, 4-(7-phenyl-4-(pyrazin-2-ylmethoxy)-6,7-dihydro-5H-pyrrolo[2,3-d]pyrimidin-2-yl)morpholine]: the IC50 was in the range of 10 to 100 nM.

For `CN1CCCC(COc2nc(N3CCOCC3)nc3c2CCN3c2cncnc2)C1` (stereo not drawn) [Compound 16, 4-(4-((1-methylpiperidin-3-yl)methoxy)-7-(pyrimidin-5-yl)-6,7-dihydro-5H-pyrrolo[2,3-d]pyrimidin-2-yl)morpholine], the IC50 lay in the range of 1000 to 10000 nM.

Regarding `CN1CCCC(COc2nc(N3CCOCC3)nc3c2CCN3c2ccnnc2)C1` (stereo not drawn) [Compound 17, 4-(4-((1-methylpiperidin-3-yl)methoxy)-7-(pyridazin-4-yl)-6,7-dihydro-5H-pyrrolo[2,3-d]pyrimidin-2-yl)morpholine], the IC50 is 100 to 1000 nM.

With `CN1CCCC(COc2nc(N3CCOCC3)nc3c2CCN3c2cnn(C)c2)C1` (stereo not drawn) [Compound 18], the IC50 was in the range of 1000 to 10000 nM.

For the molecule `CC(C)(O)COc1nc(N2CCOCC2)nc2c1CCN2c1cccnc1` [Compound 19, 2-methyl-1-(2-morpholino-7-(pyridin-3-yl)-6,7-dihydro-5H-pyrrolo[2,3-d]pyrimidin-4-yloxy)propan-2-ol], the IC50 was 100 to 1000 nM.

Regarding `c1ccc(N2CCc3c(OCC4COC4)nc(N4CCOCC4)nc32)cc1` [Compound 20, 4-(4-(oxetan-3-ylmethoxy)-7-phenyl-6,7-dihydro-5H-pyrrolo[2,3-d]pyrimidin-2-yl)morpholine], the IC50 was in the range of 10 to 100 nM.

As for `c1ccc(N2CCc3c(OC4CCOC4)nc(N4CCOCC4)nc32)cc1` (stereo not drawn) [Compound 22, 4-(7-phenyl-4-((tetrahydrofuran-3-yl)oxy)-6,7-dihydro-5H-pyrrolo[2,3-d]pyrimidin-2-yl)morpholine], the IC50 fell in the range of 100 to 1000 nM.

As to `c1cncc(N2CCc3c(OCC4CCCO4)nc(N4CCOCC4)nc32)c1` (stereo not drawn) [Compound 23, 4-(7-(pyridin-3-yl)-4-((tetrahydrofuran-2-yl)methoxy)-6,7-dihydro-6H-pyrrolo[2,3-d]pyrimidin-2-yl)morpholine], the IC50 was in the range of 100 to 1000 nM.

For the molecule `c1ccc(N2CCc3c(OCc4ccccn4)nc(N4CCOCC4)nc32)cc1` [Compound 24, 4-(7-phenyl-4-(pyridin-2-ylmethoxy)-6,7-dihydro-5H-pyrrolo[2,3-d]pyrimidin-2-yl)morpholine], the IC50 lay within 10 to 100 nM.

For `c1ccc(N2CCc3c(OCc4cccnc4)nc(N4CCOCC4)nc32)cc1` [Compound 25, 4-(7-phenyl-4-(pyridin-3-ylmethoxy)-6,7-dihydro-5H-pyrrolo[2,3-d]pyrimidin-2-yl)morpholine], the IC50 fell in the range of 10 to 100 nM.

Regarding `c1ccc(N2CCc3c(OCc4ccncc4)nc(N4CCOCC4)nc32)cc1` [Compound 26, 4-(7-phenyl-4-(pyridin-4-ylmethoxy)-6,7-dihydro-5H-pyrrolo[2,3-d]pyrimidin-2-yl)morpholine], the IC50 lay in the range of 100 to 1000 nM.

For `c1ccc(N2CCc3c(OCc4cccnn4)nc(N4CCOCC4)nc32)cc1` [Compound 27, 4-(7-phenyl-4-(pyridazin-3-ylmethoxy)-6,7-dihydro-5H-pyrrolo[2,3-d]pyrimidin-2-yl)morpholine], the IC50 lay in the range of 10 to 100 nM.

On to `CN1CCCC(COc2nc(N3CCOCC3)nc3c2CCN3c2ccccc2)C1` (stereo not drawn) [Compound 28, 4-(4-((1-methylpiperidin-3-yl)methoxy)-7-phenyl-6,7-dihydro-5H-pyrrolo[2,3-d]pyrimidin-2-yl)morpholine.formate], for which the IC50 lay within 100 to 1000 nM.

On to `c1ccc(N2CCc3c(OCC4CCCO4)nc(N4CCOCC4)nc32)cc1` (stereo not drawn) [Compound 29, 4-(7-phenyl-4-((tetrahydrofuran-2-yl)methoxy)-6,7-dihydro-5H-pyrrolo[2,3-d]pyrimidin-2-yl)morpholine], for which the IC50 fell in the range of 100 to 1000 nM.

With `c1ccc(N2CCc3c(OCCC4CCCO4)nc(N4CCOCC4)nc32)cc1` (stereo not drawn) [Compound 30, 4-(7-phenyl-4-(2-(tetrahydrofuran-2-yl)ethoxy)-6,7-dihydro-5H-pyrrolo[2,3-d]pyrimidin-2-yl)morpholine], the IC50 fell in the range of 100 to 1000 nM.

The experiment is the same for the next values; noted with them: values plotted in FIG. 7; read-out: PIKFYVE Biochemistry (IC50).
Take `c1ccc(-c2nc(-c3cc(N4CCOCC4)nc(OCc4ccncc4)n3)no2)cc1`: the IC50 was greater than 10000 nM.

For the molecule `O=c1c(CCOc2cccnc2)cc2ncncc2n1-c1ccccc1`, the IC50 was greater than 10000 nM.

Consider `O=c1ccn(Cc2nc(N3CCOCC3)cc(-n3nccc3-c3ccccc3)n2)cc1`, for which the IC50 is greater than 10000 nM.

Values taken from US20250145642A1, “BICYCLIC HETEROARENES AND METHODS OF THEIR USE” (Kineta, Inc., priority 2021, published 2025).
